Measurements as given in ChEMBL document CHEMBL1201862, “PubChem BioAssay data set” (2004).
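Cultured in 96-well plates, cells were exposed to test compound for 48 hours across five concentrations. GI50: concentration for 50% inhibition of growth.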 Calls of active or inactive are those of the source. No stated cut-off is given here; in the data, active = GI50 up to about 1.1 µM and inactive = higher.

Columns and labels:
Experiment in all cases: inhibition of tumour cell growth, NCI panel, 48 h
MOLT-4 = tested on: MOLT-4
EKVX = tested on: EKVX
COLO 205 = tested on: COLO 205
HCT-15 = tested on: HCT-15
786-0 = tested on: 786-0
HCC 2998 = tested on: HCC 2998
LOX IMVI = tested on: LOX IMVI
SNB-78 = tested on: SNB-78
SF-539 = tested on: SF-539
OVCAR-4 = tested on: OVCAR-4
IGROV-1 = tested on: IGROV-1
PC-3 = tested on: PC-3
HOP-62 = tested on: HOP-62
HT-29 = tested on: HT-29
DMS-273 = tested on: DMS-273
BT-549 = tested on: BT-549
SF-268 = tested on: SF-268
DMS-114 = tested on: DMS-114
MDA-MB-435 = tested on: MDA-MB-435
SR = tested on: SR
UO-31 = tested on: UO-31
M14 = tested on: M14
TK-10 = tested on: TK-10
HOP-18 = tested on: HOP-18
DLD-1 = tested on: DLD-1
MDA-N = tested on: MDA-N
KM-20L2 = tested on: KM-20L2
OVCAR-8 = tested on: OVCAR-8
Hs-578T = tested on: Hs-578T
NCI-H23 = tested on: NCI-H23
NCI-H522 = tested on: NCI-H522
M19-MEL = tested on: M19-MEL
SK-MEL-28 = tested on: SK-MEL-28
HCT-116 = tested on: HCT-116
SK-MEL-5 = tested on: SK-MEL-5
NCI/ADR-RES = tested on: NCI/ADR-RES
KM12 = tested on: KM12
Malme-3M = tested on: Malme-3M
CCRF-CEM = tested on: CCRF-CEM
SNB-19 = tested on: SNB-19
MCF7 = tested on: MCF7
CAKI-1 = tested on: CAKI-1
SF-295 = tested on: SF-295
U-251 = tested on: U-251
HOP-92 = tested on: HOP-92
UACC-62 = tested on: UACC-62
SK-MEL-2 = tested on: SK-MEL-2
A498 = tested on: A498
SW-620 = tested on: SW-620
SN12C = tested on: SN12C
T47D = tested on: T47D
SK-OV-3 = tested on: SK-OV-3
MDA-MB-231 = tested on: MDA-MB-231
SNB-75 = tested on: SNB-75
NCI-H226 = tested on: NCI-H226
OVCAR-5 = tested on: OVCAR-5
A549 = tested on: A549
DU-145 = tested on: DU-145
OVCAR-3 = tested on: OVCAR-3
HL-60 = tested on: HL-60
K562 = tested on: K562
NCI-H460 = tested on: NCI-H460
ACHN = tested on: ACHN
UACC-257 = tested on: UACC-257
RXF 393 = tested on: RXF 393
RPMI-8226 = tested on: RPMI-8226

## CO[C@H]1C[C@@H]2CC[C@@H](C)[C@@](O)(O2)C(=O)C(=O)N2CCCC[C@H]2C(=O)O[C@H]([C@H](C)C[C@@H]2CC[C@@H](O)[C@H](OC)C2)CC(=O)[C@H](C)C=C(C)[C@@H](O)[C@@H](OC)C(=O)[C@H](C)C[C@H](C)/C=C/C=C/C=C1C
MOLT-4
  GI50: 0.0272 µM (active)
EKVX
  GI50: < 0.0104 µM (active)
COLO 205
  GI50: 8.24 µM (inactive)
HCT-15
  GI50: 0.117 µM
786-0
  GI50: 0.108 µM (active)
HCC 2998
  GI50: 0.167 µM (active)
LOX IMVI
  GI50: 0.0175 µM (active)
SNB-78
  GI50: 0.1 µM (active)
SF-539
  GI50: < 0.0111 µM (active)
OVCAR-4
  GI50: < 0.01 µM (active)
IGROV-1
  GI50: < 0.01 µM (active)
PC-3
  GI50: 0.0211 µM (active)
HOP-62
  GI50: < 0.0107 µM (active)
HT-29
  GI50: 0.817 µM (active)
DMS-273
  GI50: 11 µM (inactive)
BT-549
  GI50: 1.12 µM (inactive)
SF-268
  GI50: 1.77 µM (inactive)
DMS-114
  GI50: 0.1 µM (active)
MDA-MB-435
  GI50: 1.28 µM (inactive)
SR
  GI50: < 0.01 µM (active)
UO-31
  GI50: < 0.01 µM (active)
M14
  GI50: 7.55 µM (inactive)
TK-10
  GI50: 0.46 µM (active)
HOP-18
  GI50: 11.8 µM (inactive)
DLD-1
  GI50: 10 µM (inactive)
MDA-N
  GI50: 1.56 µM (inactive)
KM-20L2
  GI50: 16 µM (inactive)
OVCAR-8
  GI50: 0.0564 µM (active)
Hs-578T
  GI50: 0.0193 µM (active)
NCI-H23
  GI50: 0.394 µM (active)
NCI-H522
  GI50: 1.34 µM (inactive)
M19-MEL
  GI50: 0.1 µM (active)
SK-MEL-28
  GI50: 0.251 µM (active)
HCT-116
  GI50: 5.71 µM (inactive)
SK-MEL-5
  GI50: 0.417 µM (active)
NCI/ADR-RES
  GI50: 0.358 µM (active)
KM12
  GI50: 5.96 µM (inactive)
Malme-3M
  GI50: 0.0243 µM (active)
CCRF-CEM
  GI50: < 0.01 µM (active)

## O=C(N/N=C/c1ccc2c(c1)CCC2)c1ccccc1O
SNB-19
  GI50: 19.8 µM (inactive)
MOLT-4
  GI50: 36.9 µM (inactive)
MCF7
  GI50: 16.2 µM (inactive)
EKVX
  GI50: 27.1 µM (inactive)
COLO 205
  GI50: 53.7 µM (inactive)
CAKI-1
  GI50: 28.4 µM (inactive)
HCT-15
  GI50: 22.9 µM
786-0
  GI50: 18.5 µM (inactive)
HCC 2998
  GI50: 13.3 µM (inactive)
LOX IMVI
  GI50: 27.8 µM (inactive)
SF-539
  GI50: 31.5 µM (inactive)
OVCAR-4
  GI50: 24.8 µM (inactive)
IGROV-1
  GI50: 17.8 µM (inactive)
PC-3
  GI50: 19.7 µM (inactive)
SF-295
  GI50: 16.4 µM (inactive)
U-251
  GI50: 17.7 µM (inactive)
HOP-92
  GI50: 24.5 µM (inactive)
HOP-62
  GI50: 17 µM (inactive)
HT-29
  GI50: 27.3 µM (inactive)
BT-549
  GI50: 19.3 µM (inactive)
SF-268
  GI50: 23.8 µM (inactive)
UACC-62
  GI50: 22 µM (inactive)
SK-MEL-2
  GI50: 23.4 µM (inactive)
A498
  GI50: 15.7 µM (inactive)
SW-620
  GI50: 31.1 µM (inactive)
MDA-MB-435
  GI50: 21.5 µM (inactive)
SR
  GI50: 30.9 µM (inactive)
SN12C
  GI50: 23.1 µM (inactive)
T47D
  GI50: 25.5 µM (inactive)
UO-31
  GI50: 29 µM (inactive)
M14
  GI50: 30 µM (inactive)
TK-10
  GI50: 23 µM (inactive)
SK-OV-3
  GI50: 12.1 µM (inactive)
MDA-MB-231
  GI50: 19.5 µM (inactive)
SNB-75
  GI50: 16.8 µM (inactive)
NCI-H226
  GI50: 32.1 µM (inactive)
MDA-N
  GI50: 19.4 µM (inactive)
OVCAR-5
  GI50: 32.5 µM (inactive)
A549
  GI50: 21.2 µM (inactive)
DU-145
  GI50: 48 µM (inactive)
OVCAR-8
  GI50: 25.4 µM (inactive)
OVCAR-3
  GI50: 16.8 µM (inactive)
Hs-578T
  GI50: 22.9 µM (inactive)
NCI-H23
  GI50: 24.2 µM (inactive)
NCI-H522
  GI50: 21.5 µM (inactive)
HL-60
  GI50: 23.2 µM (inactive)
K562
  GI50: 38.9 µM (inactive)
SK-MEL-28
  GI50: 23.5 µM (inactive)
NCI-H460
  GI50: 22.1 µM (inactive)
ACHN
  GI50: 18.6 µM (inactive)
HCT-116
  GI50: 19.4 µM (inactive)
SK-MEL-5
  GI50: 33.9 µM (inactive)
NCI/ADR-RES
  GI50: 24.4 µM (inactive)
UACC-257
  GI50: 28.6 µM (inactive)
KM12
  GI50: 20.9 µM (inactive)
RXF 393
  GI50: 23 µM (inactive)
RPMI-8226
  GI50: 32.5 µM (inactive)
Malme-3M
  GI50: 21.4 µM (inactive)
CCRF-CEM
  GI50: 8.71 µM (inactive)
